Several values for one entry are separate records, joined by “and”; a condition that tells them apart may be missing. Equal values may be shown once. Toxic doses and inconclusive results are not listed.
Test system: BDF1 mice, P388 leukemia ip, median survival T/C
Assay: NCI In Vivo Anticancer Drug Screen. Data for tumor model P388 Leukemia (intraperitoneal) in B6D2F1 (BDF1) mice
Details: endpoint: median survival time, higher = longer survival
Summary of the method: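 Mice carrying the transplantable tumour receive compound or vehicle. Survival is followed in each arm, and the treated measure is divided by the vehicle measure.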

[1] = dose: 100.0 mg/kg/injection, schedule: Q01DX009 (ip), vehicle: saline with Tween-80
[2] = dose: 100.0 mg/kg/injection, schedule: Q04DX003 (ip), vehicle: saline with Tween-80
[3] = dose: 200.0 mg/kg/injection, schedule: Q01DX009 (ip), vehicle: saline with Tween-80
[4] = dose: 200.0 mg/kg/injection, schedule: Q04DX003 (ip), vehicle: saline with Tween-80
[5] = dose: 400.0 mg/kg/injection, schedule: Q04DX003 (ip), vehicle: saline with Tween-80
[6] = dose: 100.0 mg/kg/injection, schedule: Q01DX009 (ip), vehicle: saline
[7] = dose: 200.0 mg/kg/injection, schedule: Q01DX009 (ip), vehicle: saline
[8] = dose: 400.0 mg/kg/injection, schedule: Q01DX009 (ip), vehicle: saline
[9] = dose: 6.25 mg/kg/injection, schedule: Q01DX009 (ip), vehicle: saline with Tween-80
[10] = dose: 12.5 mg/kg/injection, schedule: Q01DX009 (ip), vehicle: saline with Tween-80
[11] = dose: 25.0 mg/kg/injection, schedule: Q01DX009 (ip), vehicle: saline with Tween-80
[12] = dose: 50.0 mg/kg/injection, schedule: Q01DX009 (ip), vehicle: saline with Tween-80
[13] = dose: 50.0 mg/kg/injection, schedule: Q01DX009 (ip), vehicle: saline
[14] = dose: 50.0 mg/kg/injection, schedule: Q01DX009 (ip), vehicle: Klucel (hydroxypropylcellulose) (HPC)
[15] = dose: 100.0 mg/kg/injection, schedule: Q01DX009 (ip), vehicle: Klucel (hydroxypropylcellulose) (HPC)
[16] = dose: 200.0 mg/kg/injection, schedule: Q01DX009 (ip), vehicle: Klucel (hydroxypropylcellulose) (HPC)

Nc1nc(N)c2cc(NCc3ccccc3Cl)ccc2n1 was tested, and the T/C (dose: 2.34 mg/kg/injection, schedule: Q04DX003 (ip), vehicle: Klucel (hydroxypropylcellulose) (HPC)) was 104 % of control, the T/C (dose: 4.68 mg/kg/injection, schedule: Q04DX003 (ip), vehicle: Klucel (hydroxypropylcellulose) (HPC)) was 100 % of control and the T/C (dose: 6.25 mg/kg/injection, schedule: Q01DX009 (ip), vehicle: Klucel (hydroxypropylcellulose) (HPC)) was 105 % of control. The T/C (dose: 9.37 mg/kg/injection, schedule: Q04DX003 (ip), vehicle: Klucel (hydroxypropylcellulose) (HPC)) was 122 % of control, the T/C (dose: 12.5 mg/kg/injection, schedule: Q01DX009 (ip), vehicle: Klucel (hydroxypropylcellulose) (HPC)) was 110 % of control and the T/C (dose: 18.75 mg/kg/injection, schedule: Q04DX003 (ip), vehicle: Klucel (hydroxypropylcellulose) (HPC)) was 100 % of control. The T/C (dose: 25.0 mg/kg/injection, schedule: Q01DX009 (ip), vehicle: Klucel (hydroxypropylcellulose) (HPC)) was 100 % of control.
For ClCc1cccc(CCl)c1, the T/C (dose: 50.0 mg/kg/injection, schedule: Q01DX009 (ip), vehicle: saline sonified) was 108 % of control, the T/C (dose: 100.0 mg/kg/injection, schedule: Q01DX009 (ip), vehicle: saline sonified) was 108 % of control and the T/C (dose: 200.0 mg/kg/injection, schedule: Q01DX009 (ip), vehicle: saline sonified) was 86 % of control.
In the case of O=C1CC(c2ccc(Cl)cc2)NC(c2ccc(Cl)cc2)C1 (configuration not stated), the T/C [1] is reported as 101 % of control, the T/C [2] is reported as 107 % of control and the T/C (dose: 150.0 mg/kg/injection, schedule: Q01DX009 (ip), vehicle: saline with Tween-80) is reported as 111 % of control. The T/C [3] was 116 % of control, the T/C [4] was 100 % of control and the T/C [5] was 107 % of control.
CCCCC(C#N)(C(=O)OCC)C(C)(C)C (configuration not stated) was tested, and the T/C [6] was 109 % of control, the T/C [7] was 118 % of control and the T/C [8] was 90 % of control.
With S=c1nc2[nH]c3ccccc3c2n[nH]1 the T/C [9] was 100 % of control, the T/C [10] was 97 % of control and the T/C [11] was 88 % of control. For the same compound, the T/C [12] was 96 % of control, the T/C [1] was 98 % of control and the T/C [3] was 96 % of control.
For CC(=O)N(C)C, the T/C (dose: 300.0 mg/kg/injection, schedule: Q01DX010 (ip), vehicle: saline) was 104 % of control, the T/C (dose: 600.0 mg/kg/injection, schedule: Q01DX010 (ip), vehicle: saline) was 104 % of control and the T/C (dose: 1200.0 mg/kg/injection, schedule: Q01DX010 (ip), vehicle: saline) was 119 % of control. For the same compound, the T/C (dose: 2400.0 mg/kg/injection, schedule: Q01DX010 (ip), vehicle: saline) was 119 % of control and the T/C (dose: 3600.0 mg/kg/injection, schedule: Q01DX010 (ip), vehicle: saline) was 168 % of control.
CC(C)CCC(=O)C(C)C was tested, and the T/C [2] was 91 % of control, the T/C [4] was 100 % of control and the T/C [5] was 95 % of control.
With CCCCCCCCCCCCCCCCCCNC(=O)Nc1ccc(C)cc1C the T/C (dose: 100.0 mg/kg/injection, schedule: Q04DX003 (ip), vehicle: saline + alcohol) was 91 % of control, the T/C (dose: 200.0 mg/kg/injection, schedule: Q04DX003 (ip), vehicle: saline + alcohol) was 108 % of control and the T/C (dose: 400.0 mg/kg/injection, schedule: Q04DX003 (ip), vehicle: saline + alcohol) was 108 % of control.
With CCCCCCCCCCCCOCCCCCCCCCCCC the T/C (dose: 100.0 mg/kg/injection, schedule: Q01DX009 (sc), vehicle: olive oil, sesame oil, peanut oil) was 100 % of control, the T/C (dose: 100.0 mg/kg/injection, schedule: Q04DX003 (sc), vehicle: olive oil, sesame oil, peanut oil) was 109 % of control and the T/C (dose: 200.0 mg/kg/injection, schedule: Q01DX009 (sc), vehicle: olive oil, sesame oil, peanut oil) was 100 % of control. For the same compound, the T/C (dose: 200.0 mg/kg/injection, schedule: Q04DX003 (sc), vehicle: olive oil, sesame oil, peanut oil) was 100 % of control, the T/C (dose: 400.0 mg/kg/injection, schedule: Q01DX009 (sc), vehicle: olive oil, sesame oil, peanut oil) was 95 % of control and the T/C (dose: 400.0 mg/kg/injection, schedule: Q04DX003 (sc), vehicle: olive oil, sesame oil, peanut oil) was 100 % of control.
For CC(C)(C)c1cc(I)c(O)c(CN)c1, the T/C [10] was 105 % of control, the T/C (dose: 12.5 mg/kg/injection, schedule: Q01DX009 (ip), vehicle: saline) was 95 % of control and the T/C [11] was 109 % of control. For the same compound, the T/C (dose: 25.0 mg/kg/injection, schedule: Q01DX009 (ip), vehicle: saline) was 104 % of control, the T/C [12] was 114 % of control and the T/C [13] was 104 % of control. The T/C [1] was 114 % of control.
CC1=CC(C(O)CC(C)C)C(C)(Cc2ccc(C)cn2)NC1c1ccccc1 (configuration not stated) was tested, and the T/C [9] was 107 % of control, the T/C [10] was 102 % of control and the T/C [11] was 103 % of control.
In the case of O=C1OC(N2Cc3ccccc3C2=O)c2ccccc21 (configuration not stated), the T/C [12] is reported as 100 % of control, the T/C [1] is reported as 100 % of control and the T/C [3] is reported as 94 % of control.
O=[N+]([O-])c1ccc2c(c1)C(Br)c1ccccc1-2 (configuration not stated) was tested, and the T/C [14] was 90 % of control, the T/C [15] was 118 % of control and the T/C [16] was 118 % of control.
With CCNC(=O)OCc1c(COC(=O)NCC)c(-c2ccc(F)cc2)n2c1CCC2 the T/C (dose: 25.0 mg/kg/injection, schedule: Q01DX009 (ip), vehicle: other) was 98 % of control.
For [NH-]C(CC(N)=O)C(=O)O.[NH-]C(CC(N)=O)C(=O)O.[Ni+2] (configuration not stated), the T/C (dose: 3.12 mg/kg/injection, schedule: Q01DX009 (ip), vehicle: water) was 88 % of control, the T/C (dose: 6.25 mg/kg/injection, schedule: Q01DX009 (ip), vehicle: water) was 100 % of control and the T/C (dose: 12.5 mg/kg/injection, schedule: Q01DX009 (ip), vehicle: water) was 94 % of control.
With CCOC(=O)C1=C(N)n2c(s/c(=C/c3ccc(N(C)C)cc3)c2=O)=C(C(=O)OCC)C1c1ccc(N(C)C)cc1 (configuration not stated) the T/C (dose: 50.0 mg/kg/injection, schedule: Q01DX005 (ip), vehicle: saline with Tween-80) was 101 % of control, the T/C (dose: 100.0 mg/kg/injection, schedule: Q01DX005 (ip), vehicle: saline with Tween-80) was 97 % of control and the T/C (dose: 200.0 mg/kg/injection, schedule: Q01DX005 (ip), vehicle: saline with Tween-80) was 99 % of control.
In the case of COc1cc(-n2c(CCc3nc(-c4ccc(Cl)cc4)no3)n[nH]c2=S)c(OC)cc1Cl, the T/C [12] is reported as 100 % of control, the T/C [1] is reported as 103 % of control and the T/C [3] is reported as 110 % of control.
C/C=C(\C)C(=O)OC1C(=O)OC2CC3C(C)=CC(=O)C(O)C3(C)C3C4(O)OCC23C1C(C)C4O (configuration not stated) was tested, and the T/C (dose: 0.06 mg/kg/injection, schedule: Q01DX009 (ip), vehicle: saline with Tween-80) was 89 % of control, the T/C (dose: 0.12 mg/kg/injection, schedule: Q01DX009 (ip), vehicle: saline with Tween-80) was 104 % of control and the T/C (dose: 0.25 mg/kg/injection, schedule: Q01DX009 (ip), vehicle: saline with Tween-80) was 98 % of control. The T/C (dose: 0.5 mg/kg/injection, schedule: Q01DX009 (ip), vehicle: saline with Tween-80) was 107 % of control, the T/C (dose: 1.0 mg/kg/injection, schedule: Q01DX009 (ip), vehicle: saline with Tween-80) was 103 % of control and the T/C (dose: 2.0 mg/kg/injection, schedule: Q01DX009 (ip), vehicle: saline with Tween-80) was 104 % of control. The T/C (dose: 4.0 mg/kg/injection, schedule: Q01DX009 (ip), vehicle: saline with Tween-80) was 110 % of control and the T/C (dose: 8.0 mg/kg/injection, schedule: Q01DX009 (ip), vehicle: saline with Tween-80) was 100 % of control.
For O=C(O)c1ccccc1C(=O)O (tested in a mixture with another compound), the T/C [14] was 89 % of control, the T/C [15] was 91 % of control and the T/C [16] was 96 % of control.
In the case of CCOC(=O)/C(C)=C\c1c(C)[nH]c(=O)[nH]c1=O, the T/C [13] is reported as 102 % of control, the T/C (dose: 50.0 mg/kg/injection, schedule: Q04DX003 (ip), vehicle: saline) is reported as 104 % of control and the T/C [6] is reported as 103 % of control. The T/C (dose: 100.0 mg/kg/injection, schedule: Q04DX003 (ip), vehicle: saline) was 100 % of control, the T/C [7] was 99 % of control and the T/C (dose: 200.0 mg/kg/injection, schedule: Q04DX003 (ip), vehicle: saline) was 95 % of control and 100 % of control. For the same compound, the T/C [8] was 96 % of control and the T/C (dose: 400.0 mg/kg/injection, schedule: Q04DX003 (ip), vehicle: saline) was 91 % of control and 95 % of control.

Source: PubChem BioAssay AID328 (DTP/NCI, 2004)
